Reference: patent publication US20060105330A1, “Diagnostics and remedies for malignant brain tumor” (Institute of gene and brain science, priority 2002, published 2006)

Test system: RFX1 gene expression in human glioma U251 cells
Experiment: RFX1 gene re-expression by 5-azacytidine and trichostatin A treatment, RT-PCR
Format: cell-based
Details: single inhibitor, compared with the control, 5-azacytidine 500 nM for 3 days, trichostatin A 500 ng/ml for 24 hours
Description: Total RNAs derived from human glioma tissues (GB4, GB13, GB16, and GB17) and human glioma cell lines were extracted with Trizol (manufactured by GIBCO), and total RNAs of normal tissues were purchased from Clontech. cDNAs were synthesized from 10 μg of each of total RNAs using the reverse transcriptase XL (AMV) (manufactured by Takara Shuzo Co., Ltd.) in a final volume of 10 μl. PCR was performed in the system in a total volume of 25 μl, using 1 μl cDNA template and Takara Taq™ (manufactured by Takara Shuzo Co., Ltd.). […]
The resulting PCR products were electrophoresed on 2% agarose gel and analyzed by ethidium bromide staining.
Human glioma cell lines were plated at a low density, incubated for 24 hours, and then 5-azacytidine (methyltransferase inhibitor) (manufactured by Sigma Chemical Co.) was added at a final concentration of 500 nM. […] PCR was then performed and changes in gene expression were analyzed using each agent.
To investigate the relationship between reduction or loss of expression of the RFX1 and BGT-1 genes in glioma and DNA methylation or histone deacetylation, change in expression of each gene was analyzed using the RT-PCR method, either after treatment of human glioma cell lines with the methyltransferase inhibitor 5-azacytidine and the histone deacetylase inhibitor trichostatin A singly or after treatment of cells with both inhibitors.

In the case of `Nc1ncn([C@@H]2O[C@H](CO)[C@@H](O)[C@H]2O)c(=O)n1` [5-azacytidine], the “change in expression of the RFX1 gene (RT-PCR)” value is reported as “enhancement of expression”.

For `CC(/C=C/C(=O)NO)=C\[C@@H](C)C(=O)c1ccc(N(C)C)cc1` [trichostatin A], the “change in expression of the RFX1 gene (RT-PCR)” value was “enhancement of expression”.
